Assay results published in patent publication US20260266803A1, “Induced Pluripotent Stem Cell Model of Fibrous Dysplasia/Mccune-Albright Syndrome and Methods of Use” (The Regents of the University of California, priority 2023, published 2026).

Tested on: GNAS^R201H iPSCs
Test: cAMP in iPSCs stimulated with the β-adrenergic receptor agonist isoproterenol
Type: cell-based, human
Conditions: 10 μM isoproterenol, N=6 in two different iPSC lines
Experimental: FIGS. 3A-3C. […] Representative of n=3. (FIG. 3B) Representative western blot of pluripotent and differentiated (DDX) iPSCs showing increased pCREB and pATF1, consistent with activation of the cAMP pathway. […] N=6 in two different iPSC lines.
Initial screens with a single dose (50 μM) in our GNAS iPSCs identified several compounds with potential as molecular tools ([…].B). We found candidates that inhibited Gsα^R201H but not WT (#46, 47, 43, 2). […] While not desirable for treating FD/MAS or GNAS hyperactivation, these may be useful for treating diseases of GNAS loss of function (e.g., Albright's hereditary osteodystrophy).

CC(C)NCC(O)c1ccc(O)c(O)c1 (stereo not shown) [isoproterenol]
differences in cAMP from baseline: increased differences in cAMP from baseline
